Earlier results, collected in US6872734B2, “Use of tiagabine for treatment of diabetic neuropathy and migraine” (Abbott Laboratories, priority 2000, dated 2005).

Tested on: GABA uptake
Details: for inhibition of GABA uptake: according to J. Pharm. Exp. Therap., 228 (1984), 109

Structure (SMILES) | GABA uptake inhibitory properties (acid and salts thereof, cf. U.S. Pat. No. 5,010,090) | inhibition of GABA uptake
Cc1ccsc1C(=CCCN1CCC[C@@H](C(=O)O)C1)c1sccc1C [(R)-N-[4,4-Bis(3-methyl-2-thienyl)-3-butenyl]nipecotic acid] | effective GABA uptake inhibitory compounds | –
O=C(O)C1CCCN(CCC=C(c2ccccc2)c2ccccc2)C1 (stereo not shown) [SK&F 89976A, N-(4,4-diphenyl-3 butenyl)nipecotic acid] | – | active inhibitors of GABA uptake
O=C(O)C1=CCCN(CCC=C(c2ccccc2)c2ccccc2)C1 [SK&F 100330A, N-(4,4-diphenyl-3-butenyl)guvacine] | – | active inhibitors of GABA uptake
O=C(O)C1CCCN(CCC=C(c2ccccc2)c2cccs2)C1 (stereo not shown) [SK&F 100604J, N-(4-phenyl-4-(2-thienyl)-3-butenyl)nipecotic acid] | – | active inhibitors of GABA uptake
